US20230398237A1 (priority 2020, published 2023)

Assays:
[1] = test system: serum proteins (fetal bovine serum); assay: Serum protein binding test by agarose gel electrophoresis; assay type: in vitro ADME; settings: 10% FBS, 37° C., 30 min
Description: Coomassie brilliant blue 250 (CBB) was used to stain FBS. Color pictures of CBB-stained protein were inserted.
All these samples were analyzed using 2% agarose gel electrophoresis. […] The fluorescence images were taken by Carestream In-vivo FX Pro imaging system under 790 nm/830 nm. Non-invasive fluorescence imaging of body with ICG-PEG conjugates and ex vivo images

[2] = before elimination through the liver; cited from earlier work
[3] = Clearance efficiencies in urine and feces; settings: within 24 h post intravenous injection
Description: Then, the urine and feces were quantified based on fluorescence and each standard curve of conjugates were built in control urine and control feces.

[4] = test system: organic anion transporter; assay: Probenecid inhibition studies (renal clearance efficiency); assay type: in vivo, BALB/c mice; settings: 200 mg/kg probenecid i.p., urine at 30 min p.i.
Description: BALB/c mice were pre-treated by intraperitoneal injection of 200 mg/kg probenecid and control group were treated by PBS. […] The mice were anesthetized under 3% isoflurane for 30 min under steady breath rate of 7-8 times per 15 sec. After 30 min, the urine was collected from bladder and quantified by fluorescence.

CC1(C)C(/C=C/C=C/C=C/C=C2\N(CCCCS(=O)(=O)O)c3ccc4ccccc4c3C2(C)C)=[N+](CCCCS(=O)(=O)[O-])c2ccc3ccccc3c21 [ICG, Indocyanine green]
serum protein binding [1]: completely binds protein
time retained in normal renal parenchyma [2]: < 15 min
clearance percentage in feces [3]: 85.3 % ID

FITC-inulin
effect of probenecid on renal clearance efficiency [4]: no significant difference
